The values that follow come from patent US6284799A, “Cancer treatment” (priority 1996, dated 2001).

One data set has as its system C-3 fibrosarcoma cells. As to the kind of experiment: tumor promotion in mice injected with C-3 fibrosarcoma cells. It counts as in vivo, C3H mice. As to conditions: for tumor growth: C-3 fibrosarcoma, FIG. 7, FIG. 9; for animals with tumors by day 5: n=10 per group, no controls had tumors. From the text: The experiments were blinded so that the individual measuring the first appearance of palpable tumor was unaware of the treatment group (saline control vs antidepressant drug; n=10 in each group),

Data set [1] relates to concanavalin A-stimulated normal lymphocytes. As to the kind of experiment: proliferation of concanavalin A-stimulated normal lymphocytes. Type of data set: cell-based.
Data set [2] deals with HIC. The data set is described as follows: inhibition of histamine binding to HIC in microsomes. Also noted: species or system rat.
Data set [3] has as its target ^3 H-DPPE binding (HIC) in rat liver microsomes. As to the kind of experiment: competition for 3H-DPPE binding in liver microsomes.
Data set [4] deals with HIC. The data set is described as follows: competition for 3H-histamine binding to HIC in brain membranes. Also noted: species or system rat. As to conditions: for Ki: rat cortical membranes.
In data set [5] the test system is phorbol myristate acetate (PMA)-induced platelet aggregation. The data set is described as follows: PMA-induced platelet aggregation. Type of data set: cell-based. As to conditions: for IC50: Platelet, read-out: IC50, antagonism of PMA-induced platelet aggregation.
Data set [6] has as its system MCF-7 human breast cancer cells. The note with it: MCF7, 168 h, read-out: IC50 value, inhibit/kill growth of MCF-7 cells.
A further data set relates to L5178Y lymphoma cells. The data set is described as follows: tumor-promoting effect in DBA/2 mice inoculated subcutaneously with L5178Y lymphoma cells. Type of data set: in vivo. An excerpt: A second group of 7 tumor cell-inoculated mice served as controls (saline injections, once daily×1). By day 14, 7/7 DPPE treated animals had palpable tumors as compared to 4/7 controls. At the end of 4 weeks, 6/7 controls had tumors with an aggregate surface area of 14.5 cm^2 (mean=2.1±0.8 cm^2 /animal), while 7/7 DPPE-treated animals had tumors with an aggregate surface area of 38.4 cm^2 (mean=5.5±0.7 cm^2 /animal). Thus, the tumor burden of DPPE-treatedanimals was approximately 2.5-fold greater than that of controls.

In data set [7] the test system is PMA-induced inflammation in skin. As to the kind of experiment: PMA-induced skin inflammation in DBA/2 mice. Type of data set: in vivo. As to the method: To investigate any effect of DPPE to increase PMA-induced inflammation in the same strain of mice (DBA/2), groups of 3 animals were shaved over the back and 48 hours later received a single topical application of […] PMA in acetone. The PMA-treated mice then received either saline (control) or DPPE (4 or 32 mg/kg at time 0 and 24 hours). Three animals painted with acetone served as vehicle controls. Forty-eight hours later, the various groups were sacrificed by CO2 asphyxiation, the skin carefully excised, pinned to paper strips to prevent, wrinkling, and immersed in formaldehyde. H and E-stained sections of skin were assessed for degree of inflammation.
Indeed, since tumor promotion requires the presence of inflammatory response, and can be blocked by agents which inhibit inflammation by definition, DPPE functions as a co-promoter with PMA.

The next data set concerns rat uterus. As to conditions: cited from earlier work.
The conditions of data set [8]: clinically relevant doses to enhance chemotherapy, about 0.2-12 mg/kg; cited from earlier work.
Where [9] appears, read: 1 mg/kg s.c. once daily x3, end of 4 weeks.

Structures are written as SMILES. Where two headings read alike, the source gives them in different places.

For the compound `CC(C)NC[C@H](O)COc1cccc2ccccc12` (racemic) [propanolol], in the data set with C-3 fibrosarcoma cells (C-3 fibrosarcoma murine model, FIG. 7), the “tumor weight on Day 23” value is recorded as “significantly increased tumor weight”. Moreover, the “inhibition of lymphocyte proliferation / mitogenesis” value in [1] is listed as “inhibits normal lymphocyte mitogenesis”.
As for `COc1ccc(CCN2CCC(Nc3nc4ccccc4n3Cc3ccc(F)cc3)CC2)cc1` [Astemizole], the “tumor growth” value in the data set on C-3 fibrosarcoma cells was “potently stimulate the growth”. In addition, in data set [1], the “inhibition of lymphocyte proliferation / mitogenesis” value was “potent to inhibit”. The “inhibition of histamine binding to HIC” value with HIC [2] is “potent to inhibit histamine binding”.
Consider `CCN(CC)CCOc1ccc(C(=O)c2ccc(F)cc2)cc1` [DFPE, N,N=diethyl-2-[4-(4'-fluorophenone)phenoxy] ethanamine], for which the Ki in [3] (rat liver microsomes, read-out: KI value, competition for [^3 H] DPPE binding) is ~0.07 µM; on HIC [4] it was 0.3 µM. The “potency relative to DPPE in inhibiting histamine binding at HIC” value in the data set on HIC [4] (brain membranes) was “approximately three times more potent”. Also, the “potency relative to DPPE in HIC binding competition assays” value with HIC [4] (inhibiting normal cell proliferation and promoting malignant cell proliferation) was “two to four times that of DPPE”. In data set [5], the “potency relative to DPPE in antagonizing PMA-induced platelet aggregation” value was “approximately four times more potent”. For the same compound, the IC50 in [5] turned out to be 20 µM; in [6], 3 µM.
For the compound `CCN(CC)CCOc1ccc(Cc2ccccc2)cc1` [DPPE, N,N-diethyl-2-[4-(phenylmethyl)-phenoxy] ethanamine], the “animals with palpable tumors by day 14” value with L5178Y lymphoma cells (1 mg/kg (4 mg/M^2) s.c. once daily x3, day 14, n=7) is given as 7/7. The “animals with tumors at the end of 4 weeks” value in the data set with L5178Y lymphoma cells (1 mg/kg s.c. once daily x3, 4 weeks, n=7) is reported as 7/7. For the same compound, in the data set on L5178Y lymphoma cells (setting [9]), the “aggregate tumor surface area” value stood at 38.4 cm^2 and the “mean tumor surface area per animal” value is 5.5±0.7 cm^2 /animal. Also, the “tumor burden relative to controls” value in the data set with L5178Y lymphoma cells (end of 4 weeks, versus saline controls) was “approximately 2.5 fold”. The “inflammatory response to PMA, high dose” value in data set [7] (32 mg/kg (128 mg/M^2)) was “most intense inflammatory response”. Further, the “mitotic activity in the epithelial layer” value in data set [7] (32 mg/kg, versus PMA and saline-treated groups) is on record as “increased mitotic activity”. Also, the “inflammatory response to PMA” value in [7] (4 or 32 mg/kg at time 0 and 24 hours, skin assessed at 48 hours, versus saline or acetone controls) is listed as “significantly greater inflammatory response”. This compound showed a Kd in data set [3] (^3 H-DPPE binding in liver microsomes) of 0.065 µM. In addition, the Ki on HIC [4] was 0.9 µM. The “inhibition of lymphocyte proliferation / mitogenesis” value in data set [1] was “inhibit”. The IC50 in [5] turned out to be 80 µM. Also, in the data set on rat uterus, the “antiestrogenic activity in vivo” value is given as “antiestrogenic in vivo” and the “effect on tamoxifen action in the rat uterus in vivo” value is “augment the effects of tamoxifen”. Further, in data set [8], the “serious toxic effects in humans” value was “does not cause serious toxic effects”. Further, the IC50 in [6] stood at 6.5 µM.
On to `CN(C)CCC=C1c2ccccc2CCc2ccccc21` [amitriptyline], for which the Ki in data set [3] (liver microsomes, FIG. 2, read-out: K1 to compete for ^3 H-DPPE binding) turned out to be 10 µM. Moreover, the “animals with tumors by day 5” value in the data set on C-3 fibrosarcoma cells was 4/10. Besides, the IC50 in data set [1] (Lymphocyte, in the absence of cytotoxicity, FIG. 5, read-out: IC50, inhibition of proliferation) is 10 to 20 µM.
Turning to `CNCCC(Oc1ccc(C(F)(F)F)cc1)c1ccccc1` (stereo not shown) [fluoxetine], the “animals with tumors by day 5” value in the data set with C-3 fibrosarcoma cells was 4/10.
Turning to `CCOC(=O)N1CCC(=C2c3ccc(Cl)cc3CCc3cccnc32)CC1` [loratidine], in the data set with C-3 fibrosarcoma cells, the “tumor growth” value is “potently promoted tumor growth”. In addition, in data set [1], the “inhibition of lymphocyte proliferation / mitogenesis” value is listed as “inhibited concanavalin A-stimulated mitogenesis”.
